# Reference: US20250114374A1, “BCL-2 INHIBITORS” (Newave Pharmaceutical Inc., priority 2021, published 2025)
# Read-outs that look alike come from different tables or passages of the source.
# Tested on: RS4; 11 with G101V mutation
# Assay: In vitro anti-proliferation assay (ATPlite luminescence) in BCL-2-dependent ALL cell line RS4;11 with G101V mutation
# Format: cell-based
# Conditions: read-out: RS411-G101V IC50
# Outline: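 IC50 came from luminescent ATP quantification (ATPlite) following cell lysis. Compound dose ranges were applied for roughly 72 h to about 1×10^4 G101V-mutant RS4;11 cells per well, in 10% FBS medium.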
# [1] = cellular anti-proliferative IC50, about 72 hours, medium with 10% FBS, ATPlite
SMILES,IC50 [1] [nM],"IC50 (Homo sapiens, RS4-11, 72 h) [nM]"
"Cc1ccccc1[C@@H]1CN(C2CCC(C)(O)CC2)CCN1C1CC2(CCN(c3ccc(C(=O)NS(=O)(=O)c4cc5c(c([N+](=O)[O-])c4)N[C@H](C4CCOCC4)CO5)c(N4c5cc6cc[nH]c6nc5O[C@H]5COCC[C@@H]54)c3)CC2)C1 (stereo partly drawn) [Example 199, 4-(2-((R)-4-((1r,4R)-4-hydroxy-4-methylcyclohexyl)-2-(o-tolyl)piperazin-1-yl)-7-azaspiro[3.5]nonan-7-yl)-N-(((R)-5-nitro-3-(tetrahydro-2H-pyran-4-yl)-3,4-dihydro-2H-benzo[b][1,4]oxazin-7-yl)sulfonyl)-2-((5aS,9aR)-6,7,9,9a-tetrahydro-1H-pyrano[3,4-b]pyrrolo[3′,2′:5,6]pyrido[3,2-e][1,4]oxazin-5(5aH)-yl)benzamide]",50.4,
"COc1cc(CN2CCN(C3CC4(CCN(c5ccc(C(=O)NS(=O)(=O)c6ccc(NCC7CCOCC7)c([N+](=O)[O-])c6)c(N6c7cc8cc[nH]c8nc7O[C@H]7COCC[C@@H]76)c5)CC4)C3)[C@@H](c3ccccc3OC(C)C)C2)cnc1N1CCOCC1 [Example 133, 2-[(3R,8S)-2,5-dioxa-9,15,17-triazatetracyclo[8.7.0.0^{3,8}.0^{12,16}]heptadeca-1(10),11,13,16-tetraen-9-yl]-4-{2-[(2S)-2-(2-isopropoxyphenyl)-4-{[5-methoxy-6-(morpholin-4-yl)pyridin-3-yl]methyl}piperazin-1-yl]-7-azaspiro[3.5]nonan-7-yl}-N-{3-nitro-4-[(oxan-4-ylmethyl)amino]benzenesulfonyl}benzamide]",32.4,
"COc1cc(CN2CCN(C3CC4(CCN(c5ccc(C(=O)NS(=O)(=O)c6ccc(NCC7CCOCC7)c([N+](=O)[O-])c6)c(N6c7cc8cc[nH]c8nc7O[C@H]7COCC[C@@H]76)c5)CC4)C3)[C@@H](c3ccccc3OC(C)C)C2)cnc1N1CCOCC1 [Example 132, 2-[(3R,8S)-2,5-dioxa-9,15,17-triazatetracyclo[8.7.0.0^{3,8}.0^{12,16}]heptadeca-1(10),11,13,16-tetraen-9-yl]-4-{2-[(2S)-2-(2-isopropoxyphenyl)-4-{[5-methoxy-6-(morpholin-4-yl)pyridin-3-yl]methyl}piperazin-1-yl]-7-azaspiro[3.5]nonan-7-yl}-N-{3-nitro-4-[(oxan-4-ylmethyl)amino]benzenesulfonyl}benzamide]",32.2,
"CC(C)Oc1ccccc1[C@@H]1CN([C@@H]2CCCOC2)CCN1C1CC2(CCN(c3ccc(C(=O)NS(=O)(=O)c4cc5c(c([N+](=O)[O-])c4)N[C@H](C4CCOCC4)CO5)c(N4c5cc6cc[nH]c6nc5O[C@H]5COCC[C@@H]54)c3)CC2)C1 [Example 174, 4-(2-((R)-2-(2-isopropoxyphenyl)-4-((R)-tetrahydro-2H-pyran-3-yl)piperazin-1-yl)-7-azaspiro[3.5]nonan-7-yl)-N-(((R)-5-nitro-3-(tetrahydro-2H-pyran-4-yl)-3,4-dihydro-2H-benzo[b][1,4]oxazin-7-yl)sulfonyl)-2-((5aS,9aR)-6,7,9,9a-tetrahydro-1H-pyrano[3,4-b]pyrrolo[3′,2′:5,6]pyrido[3,2-e][1,4]oxazin-5(5aH)-yl)benzamide]",,46.5
"Cc1ccccc1[C@@H]1CN(C2CCC3(CCOCC3)CC2)CCN1C1CC2(CCN(c3ccc(C(=O)NS(=O)(=O)c4cc5c(c([N+](=O)[O-])c4)N[C@H](C4CCOCC4)CO5)c(N4c5cc6cc[nH]c6nc5O[C@H]5COCC[C@@H]54)c3)CC2)C1 (stereo partly drawn) [Example 202, 2-[(3R,8S)-2,5-dioxa-9,15,17-triazatetracyclo[8.7.0.0^{3,8}.0^{12,16}]heptadeca-1(10),11,13,16-tetraen-9-yl]-4-{2-[(2R)-2-(2-methylphenyl)-4-{3-oxaspiro[5.5]undecan-9-yl}piperazin-1-yl]-7-azaspiro[3.5]nonan-7-yl}-N-[(3R)-5-nitro-3-(oxan-4-yl)-3,4-dihydro-2H-1,4-benzoxazin-7-ylsulfonyl]benzamide]",15.1,
